Experimental data: the supplement of paper PMC11451515

Tested on: P12-Ichikawa
Test: cell viability relative to DMSO control; higher = less cytotoxic
Settings: 48 h
Procedure, shortened: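 Viability is expressed as a percentage of DMSO wells within each plate, and cell-free wells serve as background. Seeding densities in the 1536-well plates (5 μl) were 500 cells/well for NOMO1 or SEM leukemia cells and 1000 cells/well for P12-Ichikawa. Each line was adapted for at least four passages in each medium. Library compounds in DMSO were pin-dosed at 47 μM to 0.79 nM (11 points, threefold), and CellTiter-Glo One luminescence was read after 48 h at 37°C.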

[1] = HPLM + 10% dialyzed FBS, 0.000781 µM
[2] = HPLM + 10% dialyzed FBS, 0.00234 µM
[3] = HPLM + 10% dialyzed FBS, 0.00702 µM
[4] = HPLM + 10% dialyzed FBS, 0.0211 µM
[5] = HPLM + 10% dialyzed FBS, 0.0632 µM
[6] = HPLM + 10% dialyzed FBS, 0.19 µM
[7] = HPLM + 10% dialyzed FBS, 0.569 µM
[8] = HPLM + 10% dialyzed FBS, 1.71 µM
[9] = HPLM + 10% dialyzed FBS, 5.12 µM
[10] = HPLM + 10% dialyzed FBS, 15.4 µM
[11] = HPLM + 10% dialyzed FBS, 46.1 µM
[12] = RPMI 5 mM glucose + 10% FBS, 0.000781 µM
[13] = RPMI 5 mM glucose + 10% FBS, 0.00234 µM
[14] = RPMI 5 mM glucose + 10% FBS, 0.00702 µM
[15] = RPMI 5 mM glucose + 10% FBS, 0.0211 µM
[16] = RPMI 5 mM glucose + 10% FBS, 0.0632 µM
[17] = RPMI 5 mM glucose + 10% FBS, 0.19 µM
[18] = RPMI 5 mM glucose + 10% FBS, 0.569 µM
[19] = RPMI 5 mM glucose + 10% FBS, 1.71 µM
[20] = RPMI 5 mM glucose + 10% FBS, 5.12 µM
[21] = RPMI 5 mM glucose + 10% FBS, 15.4 µM
[22] = RPMI 5 mM glucose + 10% FBS, 46.1 µM
[23] = RPMI 5 mM glucose + 10% dialyzed FBS, 0.000781 µM
[24] = RPMI 5 mM glucose + 10% dialyzed FBS, 0.00234 µM
[25] = RPMI 5 mM glucose + 10% dialyzed FBS, 0.00702 µM
[26] = RPMI 5 mM glucose + 10% dialyzed FBS, 0.0211 µM
[27] = RPMI 5 mM glucose + 10% dialyzed FBS, 0.0632 µM
[28] = RPMI 5 mM glucose + 10% dialyzed FBS, 0.19 µM
[29] = RPMI 5 mM glucose + 10% dialyzed FBS, 0.569 µM
[30] = RPMI 5 mM glucose + 10% dialyzed FBS, 1.71 µM
[31] = RPMI 5 mM glucose + 10% dialyzed FBS, 5.12 µM
[32] = RPMI 5 mM glucose + 10% dialyzed FBS, 15.4 µM
[33] = RPMI 5 mM glucose + 10% dialyzed FBS, 46.1 µM

## OC1=CC=C(C=C1)\C2=C\OC3=C(C=CC(=C3)O)C2=O
[1]
  cell viability: 112%
[2]
  cell viability: 107%
[3]
  cell viability: 105%
[4]
  cell viability: 97.2%
[5]
  cell viability: 110%
[6]
  cell viability: 104%
[7]
  cell viability: 102%
[8]
  cell viability: 99.2%
[9]
  cell viability: 92.7%
[10]
  cell viability: 102%
[11]
  cell viability: 98.1%
[12]
  cell viability: 98.3%
[13]
  cell viability: 90.4%
[14]
  cell viability: 103%
[15]
  cell viability: 99.1%
[16]
  cell viability: 100%
[17]
  cell viability: 87%
[18]
  cell viability: 90.9%
[19]
  cell viability: 89.5%
[20]
  cell viability: 92.9%
[21]
  cell viability: 86.9%
[22]
  cell viability: 89.7%
[23]
  cell viability: 100%
[24]
  cell viability: 96.3%
[25]
  cell viability: 95.4%
[26]
  cell viability: 99.9%
[27]
  cell viability: 97.3%
[28]
  cell viability: 96.7%
[29]
  cell viability: 95.8%
[30]
  cell viability: 98.1%
[31]
  cell viability: 93.1%
[32]
  cell viability: 90.3%
[33]
  cell viability: 88%

## O=NN(CCCl)C(=O)NC1CCCCC1
[1]
  cell viability: 102%
[2]
  cell viability: 106%
[3]
  cell viability: 107%
[4]
  cell viability: 96.4%
[5]
  cell viability: 107%
[6]
  cell viability: 107%
[7]
  cell viability: 112%
[8]
  cell viability: 111%
[9]
  cell viability: 111%
[10]
  cell viability: 103%
[11]
  cell viability: 105%
[12]
  cell viability: 102%
[13]
  cell viability: 96.5%
[14]
  cell viability: 97.1%
[15]
  cell viability: 97.3%
[16]
  cell viability: 116%
[17]
  cell viability: 113%
[18]
  cell viability: 104%
[19]
  cell viability: 97.2%
[20]
  cell viability: 112%
[21]
  cell viability: 107%
[22]
  cell viability: 111%
[23]
  cell viability: 97.4%
[24]
  cell viability: 105%
[25]
  cell viability: 105%
[26]
  cell viability: 102%
[27]
  cell viability: 113%
[28]
  cell viability: 108%
[29]
  cell viability: 105%
[30]
  cell viability: 110%
[31]
  cell viability: 105%
[32]
  cell viability: 103%
[33]
  cell viability: 113%

## CC1=CC=CC=C1N2\C(=N/C3=C(C(=CC=C3)C)C2=O)C[N]4C=NC5=C4N=CN=C5N
[1]
  cell viability: 115%
[2]
  cell viability: 124%
[3]
  cell viability: 122%
[4]
  cell viability: 85%
[5]
  cell viability: 120%
[6]
  cell viability: 118%
[7]
  cell viability: 108%
[8]
  cell viability: 106%
[9]
  cell viability: 79.5%
[10]
  cell viability: 78.2%
[11]
  cell viability: 82.2%
[12]
  cell viability: 113%
[13]
  cell viability: 116%
[14]
  cell viability: 107%
[15]
  cell viability: 79.6%
[16]
  cell viability: 109%
[17]
  cell viability: 98.1%
[18]
  cell viability: 97.6%
[19]
  cell viability: 81.2%
[20]
  cell viability: 62.8%
[21]
  cell viability: 60.5%
[22]
  cell viability: 57.9%
[23]
  cell viability: 107%
[24]
  cell viability: 123%
[25]
  cell viability: 116%
[26]
  cell viability: 81.7%
[27]
  cell viability: 128%
[28]
  cell viability: 112%
[29]
  cell viability: 108%
[30]
  cell viability: 95.6%
[31]
  cell viability: 70.2%
[32]
  cell viability: 56%
[33]
  cell viability: 63.9%

## COc1nccc(-c2c(-c3ccc(F)cc3)ncn2C2CCNCC2)n1
[1]
  cell viability: 99.1%
[2]
  cell viability: 108%
[3]
  cell viability: 113%
[4]
  cell viability: 110%
[5]
  cell viability: 113%
[6]
  cell viability: 100%
[7]
  cell viability: 96%
[8]
  cell viability: 100%
[9]
  cell viability: 104%
[10]
  cell viability: 90.6%
[11]
  cell viability: 80.2%
[12]
  cell viability: 109%
[13]
  cell viability: 112%
[14]
  cell viability: 106%
[15]
  cell viability: 120%
[16]
  cell viability: 117%
[17]
  cell viability: 106%
[18]
  cell viability: 108%
[19]
  cell viability: 98.2%
[20]
  cell viability: 109%
[21]
  cell viability: 104%
[22]
  cell viability: 90.5%
[23]
  cell viability: 98.2%
[24]
  cell viability: 111%
[25]
  cell viability: 117%
[26]
  cell viability: 111%
[27]
  cell viability: 119%
[28]
  cell viability: 110%
[29]
  cell viability: 106%
[30]
  cell viability: 98.9%
[31]
  cell viability: 104%
[32]
  cell viability: 94.7%
[33]
  cell viability: 80.7%

## CCCCCCCCCCCCCCCCCCCCCCO
[1]
  cell viability: 122%
[2]
  cell viability: 125%
[3]
  cell viability: 118%
[4]
  cell viability: 125%
[5]
  cell viability: 126%
[6]
  cell viability: 126%
[7]
  cell viability: 132%
[8]
  cell viability: 133%
[9]
  cell viability: 127%
[10]
  cell viability: 137%
[11]
  cell viability: 140%

## CC(=O)Nc1ccc(OC[C@](C)(O)C(=O)Nc2ccc([N+](=O)[O-])c(C(F)(F)F)c2)cc1
[1]
  cell viability: 74.6%
[2]
  cell viability: 87%
[3]
  cell viability: 84.5%
[4]
  cell viability: 87.8%
[5]
  cell viability: 85.5%
[6]
  cell viability: 89.1%
[7]
  cell viability: 88.4%
[8]
  cell viability: 88.6%
[9]
  cell viability: 90.8%
[10]
  cell viability: 91.6%
[11]
  cell viability: 86.5%
[12]
  cell viability: 63.5%
[13]
  cell viability: 76.8%
[14]
  cell viability: 71.1%
[15]
  cell viability: 87%
[16]
  cell viability: 85.5%
[17]
  cell viability: 77%
[18]
  cell viability: 80.6%
[19]
  cell viability: 83.8%
[20]
  cell viability: 85.1%
[21]
  cell viability: 86.3%
[22]
  cell viability: 81.2%
[23]
  cell viability: 67.3%
[24]
  cell viability: 76.4%
[25]
  cell viability: 77.3%
[26]
  cell viability: 78.2%
[27]
  cell viability: 92.5%
[28]
  cell viability: 76.4%
[29]
  cell viability: 80%
[30]
  cell viability: 83.4%
[31]
  cell viability: 80.3%
[32]
  cell viability: 85.8%
[33]
  cell viability: 80.7%

## CC1(C)Cc2c(-c3ccccc3)c(-c3ccc(Cl)cc3)c(CC(=O)O)n2C1
[1]
  cell viability: 120%
[2]
  cell viability: 118%
[3]
  cell viability: 117%
[4]
  cell viability: 122%
[5]
  cell viability: 118%
[6]
  cell viability: 110%
[7]
  cell viability: 107%
[8]
  cell viability: 112%
[9]
  cell viability: 105%
[10]
  cell viability: 103%
[11]
  cell viability: 95.6%
[12]
  cell viability: 115%
[13]
  cell viability: 112%
[14]
  cell viability: 118%
[15]
  cell viability: 118%
[16]
  cell viability: 110%
[17]
  cell viability: 107%
[18]
  cell viability: 111%
[19]
  cell viability: 110%
[20]
  cell viability: 97.8%
[21]
  cell viability: 99.6%
[22]
  cell viability: 83.5%
[23]
  cell viability: 106%
[24]
  cell viability: 108%
[25]
  cell viability: 115%
[26]
  cell viability: 102%
[27]
  cell viability: 107%
[28]
  cell viability: 102%
[29]
  cell viability: 106%
[30]
  cell viability: 104%
[31]
  cell viability: 103%
[32]
  cell viability: 98.1%
[33]
  cell viability: 86%

## CC(NC1=CC=CC=C1)C\2=C\C(=C/N3C(=O)\C=C(/N=C23)N4CCOCC4)C (configuration not stated)
[1]
  cell viability: 101%
[2]
  cell viability: 100%
[3]
  cell viability: 107%
[4]
  cell viability: 110%
[5]
  cell viability: 109%
[6]
  cell viability: 110%
[7]
  cell viability: 115%
[8]
  cell viability: 115%
[9]
  cell viability: 110%
[10]
  cell viability: 106%
[11]
  cell viability: 101%
[12]
  cell viability: 95.9%
[13]
  cell viability: 98%
[14]
  cell viability: 97.4%
[15]
  cell viability: 98.1%
[16]
  cell viability: 102%
[17]
  cell viability: 110%
[18]
  cell viability: 115%
[19]
  cell viability: 113%
[20]
  cell viability: 101%
[21]
  cell viability: 112%
[22]
  cell viability: 102%
[23]
  cell viability: 88.6%
[24]
  cell viability: 93.6%
[25]
  cell viability: 114%
[26]
  cell viability: 110%
[27]
  cell viability: 99.1%
[28]
  cell viability: 115%
[29]
  cell viability: 110%
[30]
  cell viability: 116%
[31]
  cell viability: 105%
[32]
  cell viability: 106%
[33]
  cell viability: 111%
